Reference: patent US6635629B2, “3-nitrogen-6,7-dioxygen steroids and uses related thereto” (Inflazyme Pharmaceuticals Ltd., priority 2000, dated 2003)
pIC50: −log10 of the molar value. “And” between values parts separate entries of the source, which are not always exact repeats. Equal values may be shown once.

Test system: Jurkat clone E6.1 cells
Test: Antigen-induced (anti-CD3 mAb) calcium flux in Jurkat clone E6.1 cells
Format: cell-based
Settings: 20 μM; anti-CD3 mAb 4 μg/mL; Fura 2AM
Text: Elevation of cytoplasmic calcium concentration is a common and crucial event which follows the activation of many types of cell surface receptors. Increases in intracellular calcium that occur following agonist activation of inositol lipid hydrolysis are the results of calcium release from the endoplasmic reticulum and the influx of calcium through the plasma membrane. Increases in cytosolic calcium concentration are involved in many important cellular responses in the inflammatory process including adhesion, motility, gene expression, proliferation, and degranulation. Changes in intracellular calcium centrations can affect both short and long term cellular responses. An assay method to evaluate a test compound's impact on calcium flux is provided as follows.
The resulting supernatants are discarded and each pellet is washed in 10 mL HBSS. Cell suspensions are accumulated and centrifuged for 5 minutes at 900 RPM to form a cell pellet. The resulting supernatant is discarded and the pellet is resuspended in HBSS at 1×10^7 cells/mL. The cell suspension is transferred to a 20 mm petri dish and incubated at 37° C., 5% CO2 for 20 minutes.
One volume of Fura 2AM is mixed to one volume of detergent Pluronic F127. Cells are labeled with 4 μL of probe solution to each mL of cell suspension. The petri dish is wrapped in aluminum foil to protect from light and placed on a plate shaker for 30 minutes at room temperature.
The following steps are done in the laminar flow hood with the fluorescent lights turned off. The petri dish is removed from the shaker and the labeled cell suspension is transferred to a 15 mL conical tube and washed twice with HBSS as above. The cell pellet is resuspended in 12 mL HBSS and left wrapped in foil for 30 minutes at room temperature. The labeled cell suspension is aliquoted (100 μL/well) into a Dynex 96 well white opaque tissue culture plate. […] Selected compounds were tested for dose related activity. Test samples and activator (anti—CD3 mAb at final concentration of 4 μg/mL, PharMingen) are added manually (50 μL), such that the minimum time to acquire the first data point after stimulation is approximately 30 seconds. The calcium influx response to anti-CD3 mAb is measured as an “end point” assay. The entire plate is read in 100 seconds using a kinetic of 1 second per well.
The plate is read before the addition of anti-CD3 to monitor non-specific effect of samples/drugs. Fluorescence emission is measured at 510 nm with excitation alternating between 340 and 380 every second using an excitation/emission filter pair. Data from these dual wavelengths are represented as a ratio of 2 excitations wavelengths. This ratio is independent of intracellular dye and cell concentrations, enabling real comparison between experiments.

SMILES	Calcium (% inhibition at 20 μM) [%]
COc1ccc(CNC2CCC3(C)C(C2)C(O)C(O)C2C4=C(CCC23)C(C)(C)CC4)cc1OC.Cl (stereo not shown) [Compound 142]	13.8
CCC1(C)CCC2=C1CCC1C2C(O)C(O)C2CC(N)CCC21C.Cl (stereo not shown) [Compound 143]	22.6
CCC1(C)CCC2=C1CCC1C2C(O)C(O)C2CC(NCc3ccccc3)CCC21C.Cl (stereo not shown) [Compound 146]	41.7
CCC1(C)CCC2=C1CCC1C2C(O)C(O)C2CC(NCc3ccccc3)CCC21C.Cl (stereo not shown) [Compound 147]	36.3

Test system: rat mast cell line (RBL-2H3)
Test: Antigen-induced release of hexosaminidase from a rat mast cell line (RBL-2H3)
Format: cell-based
Settings: inhibition of DNP-HSA antigen-induced hexosaminidase release; tested at 0.3, 3, 10 and 30 μM; read-out: Hex IC50
Experimental: The anti-allergic effects of a compound of the present invention was evaluated by measuring its effect on antigen-induced secretion of hexosaminidase from a passively sensitized rat mast cell line. The ability of a test compound to inhibit the release of mast cell granule contents, e.g., histamine and hexosaminidase, is indicative of the anti-allergy and/or anti-asthma activity of the compound. Hexosaminidase is released from the mast cell granule along with histamine and other mediators during antigen challenge. The test is performed as follows.
RBL-2H3 cells are grown in culture and passively sensitized for 1 hour at 37° C. to dinitrophenol (DNP) using anti-human-DNP (IgE). Cells are incubated with test compound for 30 minutes at 37° C. and stimulated with 0.5 μg/ml DNP-HSA (antigen) for 30 minutes. Aliquots of the supernatant are removed and used to measure the amount of hexosaminidase released during challenge with the antigen. […] The effect of each test compound is determined as a percentage of the antigen-induced response (minus background release) obtained in the presence of DMSO alone. These values are used to determine the degrees of inhibition of antigen-induced hexosaminidase release from the cells.

SMILES	pIC50
COc1ccc(CNC2CCC3(C)C(C2)C(O)C(O)C2C4=C(CCC23)C(C)(C)CC4)cc1OC.Cl (stereo not shown) [Compound 142]	4.80
CCC1(C)CCC2=C1CCC1C2C(O)C(O)C2CC(N)CCC21C.Cl (stereo not shown) [Compound 143]	5.07
CCC1(C)CCC2=C1CCC1C2C(O)C(O)C2CC(NCc3ccccc3)CCC21C.Cl (stereo not shown) [Compound 146]	5.05
CCC1(C)CCC2=C1CCC1C2C(O)C(O)C2CC(NCc3ccccc3)CCC21C.Cl (stereo not shown) [Compound 147]	4.74

Test system: not listed separately
Test: Metabolic stability in human liver S9 fractions
Format: in vitro ADME
Settings: 10 μM, 37° C., 15 min incubation, relative to 0 minute incubation
Text: The therapeutic effectiveness of a test compound can be often directly related to its metabolic stability in vivo. The majority of known, marketed drugs are metabolized by a group of enzymes known as P450 enzymes. The S9 fraction of human liver contains all the P450 enzymes and also cytoplasmic enzymes that may be involved in the metabolism of new chemical entities. Metabolism in vitro using human S9 fractions is a standard assay to evaluate relative metabolic stability of new compounds. The test is performed as follows.
Reagents are thawed on ice and combined to make up a Master Mix as follows: Potassium phosphate (100 mM, pH 7), G6P (0.25 mM), G6PDH (2 U/ml), NADPH (1 mM), UDP (0.25 mM), APPS (0.25 mM), and S9 fraction (2 mg/ml). A volume of 498 μl of the Master mix is dispensed into each microcentrifuge tube. A volume of 2 μl of 2.5 mM test compound (final concentration of 10 μM) is dispensed into the center of the lid of the appropriate tube, and the lids gently closed to prevent mixing. Synchronous combination of test compound and master mix is achieved by simultaneous ten times inversion of the tubes, which are then incubated at 37° C. and shaken at 150 rpm for the appropriate incubation times. While incubation is in progress, all 0 time samples are mixed individually by three times inversion followed by the immediate addition of 500 μl ice cold acetonitrile with three times inversion to stop the reaction. Immediately after each 15 minutes and 30 minutes incubation is complete, ice cold acetonitrile is added to each tube and the tubes mixed by three times inversion. All sample tubes are incubated at −80° C. for a minimum of 15 minutes, thawed and remixed by inversion. Aliquots of 650 μl are transferred to Chromatographic Specialties micro-spin filter system tubes (0.2 μm nylon membrane, C618505) and centrifuged at 13,000 rpm for 48 seconds. The sample filtrates are stored at −80° C.
Sample filtrates are analyzed on LCMS, and percent remaining after 15 and 30 minute incubation is calculated relative to the 0 minute incubation.
The metabolic stability of various compounds are summarized in Table 10 as the percent remaining after 15 or 30 minutes incubation with human liver S9 fractions.

SMILES	% remaining after 15 min
COc1ccc(CNC2CCC3(C)C(C2)C(O)C(O)C2C4=C(CCC23)C(C)(C)CC4)cc1OC.Cl (stereo not shown) [Compound 142]	80 ± 11%
CCC1(C)CCC2=C1CCC1C2C(O)C(O)C2CC(N)CCC21C.Cl (stereo not shown) [Compound 143]	100% and 100 ± 3%
CCC1(C)CCC2=C1CCC1C2C(O)C(O)C2CC(NCc3ccccc3)CCC21C.Cl (stereo not shown) [Compound 146]	82 ± 6%

Same assay, conditions: 10 μM, 37° C., 30 min incubation, relative to 0 minute incubation

SMILES	% remaining after 30 min
COc1ccc(CNC2CCC3(C)C(C2)C(O)C(O)C2C4=C(CCC23)C(C)(C)CC4)cc1OC.Cl (stereo not shown) [Compound 142]	55 ± 2%
CCC1(C)CCC2=C1CCC1C2C(O)C(O)C2CC(N)CCC21C.Cl (stereo not shown) [Compound 143]	100% and 99 ± 10%
CCC1(C)CCC2=C1CCC1C2C(O)C(O)C2CC(NCc3ccccc3)CCC21C.Cl (stereo not shown) [Compound 146]	63 ± 9%

Same assay, conditions: human, s9, 15 min, 10 μM, pH 7

SMILES	% remaining after 15 min [%]
CC(F)=C1CCC2C3C(CC[C@]12C)[C@@]1(C)CCC(N)CC1[C@@H](O)[C@@H]3O (stereo partly shown) [Compound 64]	104 ± 4
COC(=O)C=C1CCC2C3C(CC[C@]12C)[C@@]1(C)CCC(N)CC1[C@@H](O)[C@@H]3O (stereo partly shown) [Compound 69]	73 ± 24
CCC1CCC2C3C(CC[C@]12C)[C@@]1(C)CCC(N)CC1[C@@H](O)[C@@H]3O (stereo partly shown) [Compound 96]	92 ± 19
C=C1CCC2C3C(CC[C@]12C)[C@@]1(C)CC[C@@H](NC(=O)Nc2ccccc2)CC1[C@@H](O)[C@@H]3O (stereo partly shown) [Compound 137]	93 ± 31

Same assay, conditions: human, s9, 30 min, 10 μM, pH 7

SMILES	% remaining after 30 min [%]
CC(F)=C1CCC2C3C(CC[C@]12C)[C@@]1(C)CCC(N)CC1[C@@H](O)[C@@H]3O (stereo partly shown) [Compound 64]	88 ± 5
COC(=O)C=C1CCC2C3C(CC[C@]12C)[C@@]1(C)CCC(N)CC1[C@@H](O)[C@@H]3O (stereo partly shown) [Compound 69]	63 ± 6
CCC1CCC2C3C(CC[C@]12C)[C@@]1(C)CCC(N)CC1[C@@H](O)[C@@H]3O (stereo partly shown) [Compound 96]	94 ± 21
C=C1CCC2C3C(CC[C@]12C)[C@@]1(C)CC[C@@H](NC(=O)Nc2ccccc2)CC1[C@@H](O)[C@@H]3O (stereo partly shown) [Compound 137]	71 ± 17

Test system: sensitized Brown Norway rats
Test: Ovalbumin-induced accumulation of inflammatory cells in lung lavage fluid of sensitized Brown Norway rats
Format: in vivo, rat
Settings: 0.1 mg/kg, 4 days qd, p.o., water vehicle
Experimental: The ability of a compound to inhibit the allergen-induced accumulation of inflammatory cells such as eosinophils and neutrophils in the lavage fluid obtained from sensitized animals is indicative of that compound's anti-asthma activity. […] The test is conducted as follows.
Male Brown Norway rats are sensitized to ovalbumin by single intraperitoneal injection of 1 mg ovalbumin adsorbed to 100 mg A(OH)3 (alum) in 1 ml sterile saline (saline control rats receive only sterile saline) on day 1, and allowed to sensitize until day 21. […] Rats are challenged with 0.5% ovalbumin in saline generated using a Devillbis nebulizer for 60 min on day 21.
Forty-eight hrs after challenge, animals are sacrificed with an overdose of intraperitoneally-delivered sodium pentobarbitol and the lungs are lavaged with cold 2×7 ml phosphate buffered saline. The recovered lavage fluid is placed on ice. The bronchoalveolar lavage fluid is centrifuged and the supernatant removed. The pellet is resuspended in phosphate buffered saline at 4° C. Cytospins are prepared and stained for differentiation and enumeration of cell types.
Test compound was administered in 300 μl corn oil (Tables 7 and 8) or water (Table 9), which were used as vehicles. Control animals received 300 μl corn oil or water alone, i.e., no drug. […] A negative value in Table 7, 8, or 9 indicates an exacerbation of the effect over the control animal.

SMILES	% inhibition of eosinophils [%]	% inhibition of lymphocytes [%]	% inhibition of neutrophils [%]
CCC1(C)CCC2=C1CCC1C2C(O)C(O)C2CC(N)CCC21C.Cl (stereo not shown) [Compound 143]	28	−43	57

Same assay, conditions: 0.3 mg/kg, 4 days qd, p.o., water vehicle

SMILES	% inhibition of eosinophils [%]	% inhibition of lymphocytes [%]	% inhibition of neutrophils [%]
CCC1(C)CCC2=C1CCC1C2C(O)C(O)C2CC(N)CCC21C.Cl (stereo not shown) [Compound 143]	29	−37	25

Same assay, conditions: 1 mg/kg, 4 days qd, p.o., water vehicle

SMILES	% inhibition of eosinophils [%]	% inhibition of lymphocytes [%]	% inhibition of neutrophils [%]
CCC1(C)CCC2=C1CCC1C2C(O)C(O)C2CC(N)CCC21C.Cl (stereo not shown) [Compound 143]	48	−22	64

Same assay, conditions: 1 mg/kg/day for 4 days, p.o., corn oil vehicle; relative to control animals

SMILES	% inhibition of eosinophils [%]	% inhibition of lymphocytes [%]	% inhibition of neutrophils [%]
COc1ccc(CNC2CCC3(C)C(C2)C(O)C(O)C2C4=C(CCC23)C(C)(C)CC4)cc1OC.Cl (stereo not shown) [Compound 142]	−131	−42	−1
CCC1(C)CCC2=C1CCC1C2C(O)C(O)C2CC(NCc3ccccc3)CCC21C.Cl (stereo not shown) [Compound 146]	8	−27	24
CCC1(C)CCC2=C1CCC1C2C(O)C(O)C2CC(NCc3ccccc3)CCC21C.Cl (stereo not shown) [Compound 147]	40	36	58

Same assay, conditions: 5 mg/kg/day for 4 days, p.o., corn oil vehicle; relative to control animals

SMILES	% inhibition of eosinophils [%]	% inhibition of lymphocytes [%]	% inhibition of neutrophils [%]
CC(F)=C1CCC2C3C(CC[C@]12C)[C@@]1(C)CCC(N)CC1[C@@H](O)[C@@H]3O (stereo partly shown) [Compound 64]	62	81	70
CCC1CCC2C3C(CC[C@]12C)[C@@]1(C)CCC(N)CC1[C@@H](O)[C@@H]3O (stereo partly shown) [Compound 96]	−9	19	40
